Data as given in US11925646B2, “Agent for treating or preventing cancer, and combination of RF pathway inhibitor and MEK inhibitor for treating or preventing cancer” (NATIONAL UNIVERSITY CORPORATION HOKKAIDO UNIVERSITY, priority 2021, dated 2024).

Key:
[1] = tested on: 4-hit flies (non-GFP); assay: Survival rate of 4-hit flies raised on agent diet; assay type: in vivo, Drosophila; details: in diet: 0.5 μM trametinib, 50 μM roseoflavin; raised at 25° C. for 13 days
Method: Roseoflavin and trametinib were dissolved in DMSO (Sigma) to be stored at −20° C.
Agar (Wako), brewers' yeast (MPBio), yeast extract (Sigma Aldrich), Bacto Casitone (BD), sucrose (Wako), glucose (Wako), MgCl2 (Wako), CaCl2) (Wako), propionic acid (Wako), Mold Inhibitor (10% methyl-4-hydroxy benzoate in 95% ethanol: Wako) were dissolved in ultrapure water to produce a standard diet. While this was being warmed at 50° C., an agent (trametinib alone, or a combination of roseoflavin and trametinib) dissolved in DMSO was added thereto to be mixed, and the resultant was cooled to prepare an agent diet. Final concentrations in the diet of the respective compounds were set to 0.5 μM for trametinib, and 50 μM for roseoflavin.
The UAS-RasG12D, UAS-p53 shRNA, UAS-CycE, UAS-Med shRNA fly produced in Example 1 was crossbred with a Ser-gal4 fly (Bloomington Drosophila Stock Center), and the parent flies were caused to lay eggs for 2 days on the standard diet or the agent diet, and thus, 20 to 50 eggs per vial, of Ser-gal4; UAS-RasG12D, UAS-p53 shRNA, UAS-CycE, UAS-Med shRNA 4-hit flies (non-GFP) were obtained. These eggs were raised at 25° C. for 13 days, and survival rate of the 4-hit flies (non-GFP) raised on each diet was calculated by dividing the number of eclosed individuals by the total number of pupae.

[2] = tested on: Capan-1; assay: MTS assay, relative survival rate with roseoflavin; assay type: cell-based, human; details: RoF 0.1 to 10 μM, 24, 48 or 72 hours, ratio to solvent control at 72 hours
Method: (§1) Human pancreatic cancer cells were treated with roseoflavin (RoF), and a relative survival rate was calculated assuming that mitochondrial respiratory chain activity corresponded to the survival rate.
(§2) Human pancreatic cancer cell lines, MIAPaCa-2, PANC-1, and Capan-1 were used for performing MTS assay with RoF. All the cell lines were obtained from ATCC. Each of the cell lines was cultured with the following medium in the presence of 5% CO2 at 37° C. • MIAPaCa-2: Dulbecco's Modified Eagle's Medium (Nakalai Tesque) supplemented with 10% fetal bovine serum (Gibco) and 1% penicillin-streptomycin (Nakalai Tesque) • PANC-1: RPMI 1640 medium (Nakalai Tesque) supplemented with 10% fetal bovine serum (Gibco) and 1% penicillin-streptomycin (Nakalai Tesque) • Capan-1: IMDM medium (Iscove's Modified Dulbecco's Medium) (Nakalai Tesque) supplemented with 20% fetal bovine serum (Gibco) and 1% penicillin-streptomycin (Nakalai Tesque)
(§3) Roseoflavin (RoF) was prepared to 0 μM (DMSO alone), 0.1 mM, 0.3 mM, 1 mM, 3 mM, and 10 mM, and the resultants were respectively diluted with the medium by 1000 times to obtain agent solutions (RoF final concentration: 0 μM, 0.1 μM, 0.3 μM, 1 μM, 3 μM and […]).
(§4) In a 96 well plate, MIAPaCa-2 was seeded at 500 cells/well, PANC-1 was seeded at 2,000 cells/well, and Capan-1 was seeded at 10,000 cells/well (in 100 μL of the medium). After these were cultured for 1 day, the RoF agent solution at each concentration was added to the cells in the 96 well plate in an amount of 10 μL each (final concentration of DMSO: 0.1%). Each combination was tested in 3 wells. After the addition of the agent solution, the resultant was cultured in the presence of 5% CO2 at 37° C. for 24, 48 or 72 hours, and a cell survival rate was measured with MTS Assay (Cell Titer 96®, Promega). The survival rate was expressed as a ratio to that of the control (solvent alone) cultured for 72 hours.

[3] = tested on: MIAPaCa-2; assay: MTS assay, relative survival rate with roseoflavin; assay type: cell-based, human; details: RoF 0.1 to 10 μM, 24, 48 or 72 hours, ratio to solvent control at 72 hours
Method: as §1, §2, §3, §4

[4] = tested on: PANC-1; assay: MTS assay, relative survival rate with roseoflavin; assay type: cell-based, human; details: RoF 0.1 to 10 μM, 24, 48 or 72 hours, ratio to solvent control at 72 hours
Method: as §1, §2, §3, §4

[5] = tested on: RF pathway; assay: Liquid chromatography mass spectrometry of RoF, RF, FMN and FAD within the cells; assay type: cell-based, human; details: MIAPaCa-2, PANC-1 and Capan-1; 10 μM RoF, 48 hours; vs DMSO control
[6] = tested on: AsPC-1; assay: Spheroid formation in three-dimensional methylcellulose culture; assay type: cell-based, human; details: 10 μM RoF, 1 nM Tr, day 21 of culture
Method: (§5) The pancreatic cancer cell lines (AsPC-1 and Capan-1) having 4-hit mutation were three-dimensionally cultured in methylcellulose-containing media.
(§6) In a 24 well plate (upper layer: 1.8% methylcellulose, lower layer: 0.48% agarose), AsPC-1 was seeded at 5×10^3 cells/well (in 100 μL of the medium). After culturing for 1 day (day 1), DMSO (control), 10 μM roseoflavin (RoF), 1 nM trametinib (Tr), or 10 μM RoF+1 nM Tr was respectively added to the 24 well plate (final concentration of DMSO: 0.1%). After adding the agent solution, the resultant was cultured in the presence of 5% CO2 at 37° C., and a culture fluid was added on day 14. The resultant was further cultured, and each group was photographed on day 21 to measure the size and the number of spheroids. It is noted that the following media were used for culturing the respective cell lines: • AsPC-1: RPMI 1640 medium (Nakalai Tesque) supplemented with 10% fetal bovine serum (Gibco) and 1% penicillin-streptomycin (Nakalai Tesque) • Capan-1: IMDM medium (Iscove's Modified Dulbecco's Medium) (Nakalai Tesque) supplemented with 20% fetal bovine serum (Gibco) and 1% penicillin-streptomycin (Nakalai Tesque)

[7] = tested on: Capan-1; assay: as above; assay type: cell-based, human; details: 10 μM RoF, 1 nM Tr, day 21 of culture
Method: as §5, §6

**Q.** How did the “improvement of survival rate of 4-hit flies (eclosed individuals / total pupae)” value [1] turn out when `CC(=O)Nc1cccc(-n2c(=O)n(C3CC3)c(=O)c3c(Nc4ccc(I)cc4F)n(C)c(=O)c(C)c32)c1` [trametinib] was run?
**A.** about 10%

**Q.** For `Cc1cc2nc3c(=O)[nH]c(=O)nc-3n(C[C@H](O)[C@H](O)[C@H](O)CO)c2cc1N(C)C` [roseoflavin], which “relative survival rate (mitochondrial respiratory chain activity)” value (“relative survival rate” below) [2] is on record?
**A.** deteriorated mitochondrial respiratory chain activity in a dose dependent manner to decrease the relative survival rate

**Q.** What about the “relative survival rate” value [3] of the same molecule?
**A.** deteriorated mitochondrial respiratory chain activity in a dose dependent manner to decrease the relative survival rate

**Q.** What about the “relative survival rate” value [4] of the same molecule?
**A.** deteriorated mitochondrial respiratory chain activity in a dose dependent manner to decrease the relative survival rate

**Q.** What about the “amount of FAD (flavin adenine dinucleotide) within the cells” value [5] of the same molecule?
**A.** smaller than those in the control

**Q.** What about the “amount of FMN (flavin mononucleotide) within the cells” value [5] of the same molecule?
**A.** smaller than those in the control

**Q.** And the “amount of RF (riboflavin) within the cells” value [5]?
**A.** smaller than those in the control

**Q.** What about the “spheroid formation, spheroids of 0.1 to 0.2 mm and larger than 0.2 mm” value [6] of the same molecule?
**A.** spheroid formation was suppressed

**Q.** And the “number of spheroids of 0.1 mm or smaller” value [7]?
**A.** increased

**Q.** And the “spheroid formation, spheroids of 0.1 to 0.2 mm and larger than 0.2 mm” value [7]?
**A.** spheroid formation was suppressed
